The target in one assay is T1, FLT3-ITD (Homo sapiens, UniProt P36888).
T1 sequence (P36888 1-993): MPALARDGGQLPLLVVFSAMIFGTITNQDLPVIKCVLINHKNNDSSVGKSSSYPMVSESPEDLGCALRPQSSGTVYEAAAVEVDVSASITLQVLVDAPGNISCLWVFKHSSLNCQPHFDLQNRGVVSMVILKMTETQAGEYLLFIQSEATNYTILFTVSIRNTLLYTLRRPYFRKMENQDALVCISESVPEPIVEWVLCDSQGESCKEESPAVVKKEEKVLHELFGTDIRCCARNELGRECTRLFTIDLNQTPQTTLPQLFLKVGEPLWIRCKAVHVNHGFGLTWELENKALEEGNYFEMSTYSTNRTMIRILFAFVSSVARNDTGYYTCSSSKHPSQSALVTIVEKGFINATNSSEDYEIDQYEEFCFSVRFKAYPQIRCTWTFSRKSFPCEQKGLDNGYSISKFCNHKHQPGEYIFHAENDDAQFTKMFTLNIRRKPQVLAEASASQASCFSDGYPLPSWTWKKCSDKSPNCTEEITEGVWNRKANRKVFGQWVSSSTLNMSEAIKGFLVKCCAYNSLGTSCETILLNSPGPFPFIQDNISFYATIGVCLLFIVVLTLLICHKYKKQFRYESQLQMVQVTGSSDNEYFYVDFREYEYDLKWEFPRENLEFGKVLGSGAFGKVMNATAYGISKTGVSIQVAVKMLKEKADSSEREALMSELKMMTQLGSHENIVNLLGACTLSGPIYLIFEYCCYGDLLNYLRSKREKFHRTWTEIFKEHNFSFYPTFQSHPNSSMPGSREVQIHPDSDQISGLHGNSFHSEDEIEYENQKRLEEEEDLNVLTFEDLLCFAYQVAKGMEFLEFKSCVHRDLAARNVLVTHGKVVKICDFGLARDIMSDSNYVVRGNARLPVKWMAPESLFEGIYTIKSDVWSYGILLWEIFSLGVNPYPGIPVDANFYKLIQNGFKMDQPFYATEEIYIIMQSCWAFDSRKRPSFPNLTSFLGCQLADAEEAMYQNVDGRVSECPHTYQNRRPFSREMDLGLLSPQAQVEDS
The experiment in a line: ADP Glo kinase assay, FLT3-ITD. The conditions noted are these: for Ki: Km ATP 100 μM, read-out: Enzymatic inhibition, Ki, FLT3-ITD. It counts as biochemical. Put shortly:
(§1)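 First, compounds are diluted 1:3 across ten points from 10 to 0.0005 μM in 0.5% DMSO. Next, kinase reactions run at room temperature for an optimised period. Finally, ADP Glo reagent is added to stop them.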
For orientation: ADP-Glo first removes unused ATP, then detects ADP through luciferase.

The next assay concerns the target CDK4/CyclinD1 (Homo sapiens, UniProt P11802). Nature of the assay: ADP Glo kinase assay, CDK4/CyclinD1. It is filed as biochemical. As to conditions: for remaining activity at 1 µM: compound at 1 μM, read-out: Residual enzymatic activity (%) at 1 μM, CDK4 D1. The gist of the method: as §1
In the next assay the target is CDK7/CyclinH/Mat1 (Homo sapiens, UniProt P50613). The experiment in a line: ADP Glo kinase assay, CDK7/CyclinH/Mat1. The conditions noted are these: for Ki: Km ATP, read-out: Enzymatic inhibition, Ki, CDK7 H; for remaining activity at 1 µM: compound at 1 μM, read-out: Residual enzymatic activity (%) at 1 μM, CDK7 H. It is filed as biochemical. The gist of the method:
as §1

The target of a further assay is CDK6/CyclinD3 (Homo sapiens, UniProt Q00534). Nature of the assay: ADP Glo kinase assay, CDK6/CyclinD3. It counts as biochemical. As to conditions: for Ki: Km ATP, read-out: Enzymatic inhibition, Ki, CDK6 D3; for remaining activity at 1 µM: compound at 1 μM, read-out: Residual enzymatic activity (%) at 1 μM, CDK6 D3. The gist of the method: as §1
In the next assay the target is CDK9/CyclinT1 (Homo sapiens, UniProt P50750). The experiment in a line: ADP Glo kinase assay, CDK9/CyclinT1. It counts as biochemical. As to conditions: CDK9/CyclinT1; Km ATP; read-out: Enzymatic inhibition, Ki, CDK9 T1. Put shortly:
as §1

The next assay relates to MV-4-11. The experiment in a line: Proliferation assay (resazurin, leukemia cell lines), MV-4-11. It is filed as cell-based. As to conditions: Homo sapiens, MV4-11, read-out: 72 h Growth inhibition GI50, MV-4-11 cells. From the text: The following compounds were used as comparators.
(In general: The colour change of resazurin is a common sign of viable cells or microbes.)

Another assay addresses CDK2/CyclinA2 (Homo sapiens, UniProt P24941). Nature of the assay: ADP Glo kinase assay, CDK2/CyclinA2. It counts as biochemical. As to conditions: for remaining activity at 1 µM: compound at 1 μM, read-out: Residual enzymatic activity (%) at 1 μM, CDK2 A; for Ki: Km ATP, read-out: Enzymatic inhibition, Ki, CDK2 A. Put shortly:
as §1

A further assay concerns the target CDK1/CyclinB (Homo sapiens, UniProt P06493). The experiment in a line: ADP Glo kinase assay, CDK1/CyclinB. It counts as biochemical. The conditions noted are these: for Ki: Km ATP, read-out: Enzymatic inhibition, Ki, CDK1 B; for remaining activity at 1 µM: compound at 1 μM, read-out: Residual enzymatic activity (%) at 1 μM, CDK1 B. The gist of the method: as §1

A value given as a limit tells only on which side of the number the result lay.

Chain of CDK4/CyclinD1 (P11802 whole entry, species assumed): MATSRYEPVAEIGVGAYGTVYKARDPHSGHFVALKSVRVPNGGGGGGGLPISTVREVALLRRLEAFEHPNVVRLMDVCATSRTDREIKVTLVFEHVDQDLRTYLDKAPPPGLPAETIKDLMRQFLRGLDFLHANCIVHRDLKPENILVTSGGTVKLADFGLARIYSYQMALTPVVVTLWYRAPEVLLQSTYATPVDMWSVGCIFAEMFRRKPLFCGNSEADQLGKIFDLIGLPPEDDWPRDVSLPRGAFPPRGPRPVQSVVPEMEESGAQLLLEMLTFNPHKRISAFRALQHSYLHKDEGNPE
Chain of CDK4/CyclinD1 (P24385 whole entry partner, species assumed): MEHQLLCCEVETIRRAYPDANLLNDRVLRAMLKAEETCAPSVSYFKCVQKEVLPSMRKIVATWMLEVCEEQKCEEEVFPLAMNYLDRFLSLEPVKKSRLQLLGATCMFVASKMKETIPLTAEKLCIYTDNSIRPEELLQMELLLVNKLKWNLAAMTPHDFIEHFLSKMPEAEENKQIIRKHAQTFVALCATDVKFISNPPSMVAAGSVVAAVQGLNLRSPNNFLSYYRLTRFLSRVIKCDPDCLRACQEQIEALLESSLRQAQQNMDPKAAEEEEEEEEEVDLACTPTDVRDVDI
Chain of CDK6/CyclinD3 (Q00534 whole entry, species assumed): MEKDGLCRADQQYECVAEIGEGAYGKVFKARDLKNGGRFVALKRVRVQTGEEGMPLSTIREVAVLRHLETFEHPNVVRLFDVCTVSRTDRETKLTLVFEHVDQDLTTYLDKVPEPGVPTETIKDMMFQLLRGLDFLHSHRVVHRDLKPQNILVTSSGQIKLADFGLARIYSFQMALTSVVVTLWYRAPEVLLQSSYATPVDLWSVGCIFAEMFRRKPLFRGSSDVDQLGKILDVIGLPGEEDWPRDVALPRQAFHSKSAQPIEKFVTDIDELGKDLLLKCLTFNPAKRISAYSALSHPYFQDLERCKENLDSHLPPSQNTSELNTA
Chain of CDK6/CyclinD3 (P30281 whole entry partner, species assumed): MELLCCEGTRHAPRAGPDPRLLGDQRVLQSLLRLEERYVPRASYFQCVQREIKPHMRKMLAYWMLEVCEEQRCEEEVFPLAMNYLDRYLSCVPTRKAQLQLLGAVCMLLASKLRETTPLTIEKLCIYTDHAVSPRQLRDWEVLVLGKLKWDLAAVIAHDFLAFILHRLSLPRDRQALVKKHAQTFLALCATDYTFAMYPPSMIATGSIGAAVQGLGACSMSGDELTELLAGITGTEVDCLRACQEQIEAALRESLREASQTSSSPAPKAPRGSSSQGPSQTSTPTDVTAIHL
Chain of CDK1/CyclinB (P06493 whole entry, species assumed): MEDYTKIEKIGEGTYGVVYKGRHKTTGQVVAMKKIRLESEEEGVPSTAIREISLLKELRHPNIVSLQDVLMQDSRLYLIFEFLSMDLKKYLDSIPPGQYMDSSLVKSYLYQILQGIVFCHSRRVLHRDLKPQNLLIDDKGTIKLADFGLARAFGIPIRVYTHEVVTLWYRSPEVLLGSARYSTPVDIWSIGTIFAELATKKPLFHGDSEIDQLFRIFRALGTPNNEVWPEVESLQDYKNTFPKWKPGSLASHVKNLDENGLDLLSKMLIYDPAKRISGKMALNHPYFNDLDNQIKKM
Chain of CDK1/CyclinB (P14635 whole entry partner, species assumed): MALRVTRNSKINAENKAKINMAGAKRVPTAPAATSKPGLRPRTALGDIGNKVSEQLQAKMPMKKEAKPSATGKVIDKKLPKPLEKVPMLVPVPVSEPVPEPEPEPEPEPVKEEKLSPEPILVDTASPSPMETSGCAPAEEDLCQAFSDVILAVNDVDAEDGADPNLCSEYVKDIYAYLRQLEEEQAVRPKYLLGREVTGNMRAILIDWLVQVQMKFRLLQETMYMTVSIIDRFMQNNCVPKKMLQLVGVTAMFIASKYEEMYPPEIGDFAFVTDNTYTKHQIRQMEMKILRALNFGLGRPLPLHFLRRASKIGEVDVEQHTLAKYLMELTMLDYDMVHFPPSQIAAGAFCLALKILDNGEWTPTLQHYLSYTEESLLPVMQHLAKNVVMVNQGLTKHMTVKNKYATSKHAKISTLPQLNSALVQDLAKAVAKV
Chain of CDK9/CyclinT1 (P50750 whole entry, species assumed): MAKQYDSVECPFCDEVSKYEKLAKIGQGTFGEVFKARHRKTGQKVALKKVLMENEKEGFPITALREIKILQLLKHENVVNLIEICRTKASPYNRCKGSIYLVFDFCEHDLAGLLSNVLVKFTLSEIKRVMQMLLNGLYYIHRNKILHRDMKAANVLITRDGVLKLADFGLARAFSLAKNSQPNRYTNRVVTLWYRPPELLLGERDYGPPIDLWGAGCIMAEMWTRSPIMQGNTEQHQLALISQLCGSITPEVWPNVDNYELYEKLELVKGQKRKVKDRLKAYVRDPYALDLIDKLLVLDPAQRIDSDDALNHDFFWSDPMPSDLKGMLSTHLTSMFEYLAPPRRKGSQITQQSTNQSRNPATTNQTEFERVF
Chain of CDK9/CyclinT1 (O60563 whole entry partner, species assumed): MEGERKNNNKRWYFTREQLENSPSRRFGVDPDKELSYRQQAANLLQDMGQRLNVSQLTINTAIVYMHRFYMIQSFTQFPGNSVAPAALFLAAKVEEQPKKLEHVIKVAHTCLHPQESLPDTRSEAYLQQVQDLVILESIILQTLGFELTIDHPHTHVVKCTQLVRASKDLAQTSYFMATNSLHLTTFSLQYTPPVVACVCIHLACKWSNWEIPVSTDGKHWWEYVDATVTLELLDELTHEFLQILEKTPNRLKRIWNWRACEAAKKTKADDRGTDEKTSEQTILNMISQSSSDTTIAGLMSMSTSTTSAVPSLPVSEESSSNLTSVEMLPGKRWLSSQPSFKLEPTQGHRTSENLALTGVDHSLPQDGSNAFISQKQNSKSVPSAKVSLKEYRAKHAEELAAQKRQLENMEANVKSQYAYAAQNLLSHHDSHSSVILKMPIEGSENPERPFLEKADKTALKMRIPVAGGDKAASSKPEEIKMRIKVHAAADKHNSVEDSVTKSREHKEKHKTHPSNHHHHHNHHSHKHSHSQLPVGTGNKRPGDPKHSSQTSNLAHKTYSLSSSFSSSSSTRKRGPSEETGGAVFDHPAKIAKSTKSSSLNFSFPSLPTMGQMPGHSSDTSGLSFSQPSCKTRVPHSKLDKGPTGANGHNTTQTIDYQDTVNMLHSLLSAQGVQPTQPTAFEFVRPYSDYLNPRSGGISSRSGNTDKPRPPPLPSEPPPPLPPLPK
Chain of CDK7/CyclinH/Mat1 (P50613 whole entry, species assumed): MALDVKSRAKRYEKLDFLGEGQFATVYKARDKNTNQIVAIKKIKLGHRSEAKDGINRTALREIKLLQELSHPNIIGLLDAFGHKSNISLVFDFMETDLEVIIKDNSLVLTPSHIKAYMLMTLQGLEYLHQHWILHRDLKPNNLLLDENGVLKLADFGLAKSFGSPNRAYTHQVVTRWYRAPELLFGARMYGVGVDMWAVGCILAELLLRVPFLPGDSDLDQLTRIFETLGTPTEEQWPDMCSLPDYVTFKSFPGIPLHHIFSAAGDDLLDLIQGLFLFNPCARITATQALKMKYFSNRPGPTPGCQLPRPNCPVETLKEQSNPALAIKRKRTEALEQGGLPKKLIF
Chain of CDK7/CyclinH/Mat1 (P51946 whole entry partner, species assumed): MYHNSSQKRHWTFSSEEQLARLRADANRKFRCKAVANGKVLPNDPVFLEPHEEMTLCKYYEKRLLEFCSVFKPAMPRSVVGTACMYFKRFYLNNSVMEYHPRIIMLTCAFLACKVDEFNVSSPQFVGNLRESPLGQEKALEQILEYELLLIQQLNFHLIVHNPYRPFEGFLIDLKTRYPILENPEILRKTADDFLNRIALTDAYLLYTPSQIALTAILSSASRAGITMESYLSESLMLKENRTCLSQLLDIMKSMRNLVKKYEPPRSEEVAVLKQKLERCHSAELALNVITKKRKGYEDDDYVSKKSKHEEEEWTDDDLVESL
Chain of CDK7/CyclinH/Mat1 (P51948 whole entry partner, species assumed): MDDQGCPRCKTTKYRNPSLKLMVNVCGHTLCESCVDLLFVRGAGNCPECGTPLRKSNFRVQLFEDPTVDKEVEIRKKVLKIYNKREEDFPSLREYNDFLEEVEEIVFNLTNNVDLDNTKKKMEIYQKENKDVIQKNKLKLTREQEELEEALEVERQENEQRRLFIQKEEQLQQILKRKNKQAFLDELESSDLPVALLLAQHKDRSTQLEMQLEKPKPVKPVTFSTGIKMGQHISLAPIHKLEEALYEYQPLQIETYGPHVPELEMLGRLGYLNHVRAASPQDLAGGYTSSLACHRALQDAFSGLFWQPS

For orientation: Ki means a measure of affinity in units of concentration, obtained from inhibition or displacement. One may read the GI50 as the concentration giving 50% growth inhibition. Turning to `CS(=O)(=O)N1CCN(c2ccc(Nc3nccc(-c4cnc5ccc(-c6cncnc6)cn45)n3)cn2)CC1` [Compound 20, N-(6-(4-(Methylsulfonyl)piperazin-1-yl)pyridin-3-yl)-4-(6-(pyrimidin-5-yl)imidazo[1,2-a]pyridin-3-yl)pyrimidin-2-amine], the Ki on FLT3-ITD was 1450 nM; on CDK7/CyclinH/Mat1, 890 nM; at CDK6/CyclinD3 it was above 5000 nM; on CDK9/CyclinT1, 56 nM; at CDK1/CyclinB, above 5000 nM. The remaining activity at 1 µM on CDK4/CyclinD1 stood at 86%; at CDK2/CyclinA2 it was 41%. For the same compound, the GI50 in the assay on MV-4-11 was found to be 94 nM.
Turning to `CS(=O)(=O)N1CCN(c2ccc(Nc3nccc(-c4cnc5ccc(-c6cccs6)cn45)n3)cn2)CC1` [Compound 21, N-(6-(4-(Methylsulfonyl)piperazin-1-yl)pyridin-3-yl)-4-(6-(thiophen-2-yl)imidazo[1,2-a]pyridin-3-yl)pyrimidin-2-amine], the Ki is 6 nM at FLT3-ITD; 3970 nM at CDK7/CyclinH/Mat1; above 5000 nM at CDK6/CyclinD3; 8 nM on CDK9/CyclinT1; 635 nM at CDK1/CyclinB. Also, the remaining activity at 1 µM was 33% at CDK4/CyclinD1 and 28% at CDK2/CyclinA2. Besides, in the assay with MV-4-11, the GI50 is 11 nM.
For `CN1CCN(c2ccc(Nc3nccc(-c4cnc5ccc(Cl)cn45)n3)cn2)CC1` [Compound 22, 4-(6-Chloroimidazo[1,2-a]pyridin-3-yl)-N-(6-(4-methylpiperazin-1-yl)pyridin-3-yl) pyrimidin-2-amine], the Ki at FLT3-ITD was 5 nM; on CDK4/CyclinD1 (Km ATP, read-out: Enzymatic inhibition, Ki, CDK4 D1), 94 nM; on CDK7/CyclinH/Mat1 it was 770 nM; on CDK6/CyclinD3, 243 nM; at CDK9/CyclinT1, 10 nM; on CDK2/CyclinA2, 38 nM. Also, the Ki on CDK1/CyclinB is 199 nM. Also, the GI50 in the assay on MV-4-11 was 6 nM.
Consider `c1ccc(-c2ccc3ncc(-c4ccnc(Nc5ccc(N6CCC6)nc5)n4)n3c2)cc1` [Compound 25, N-(6-(Azetidin-1-yl)pyridin-3-yl)-4-(6-phenylimidazo[1,2-a]pyridin-3-yl)pyrimidin-2-amine], for which the Ki at FLT3-ITD is 5 nM; on CDK7/CyclinH/Mat1, 297 nM; on CDK9/CyclinT1, 96 nM; on CDK2/CyclinA2, 1080 nM. Besides, the remaining activity at 1 µM on CDK4/CyclinD1 was 94%; at CDK6/CyclinD3, 44%; on CDK1/CyclinB, 100%. Also, in the assay with MV-4-11, the GI50 amounted to 740 nM.
For the compound `Brc1ccc2ncc(-c3ccnc(Nc4ccc(N5CCCC5)nc4)n3)n2c1` [Compound 26, 4-(6-Bromoimidazo[1,2-a]pyridin-3-yl)-N-(6-(pyrrolidin-1-yl)pyridin-3-yl)pyrimidin-2-amine], the Ki at FLT3-ITD is 91 nM; on CDK7/CyclinH/Mat1, above 5000 nM; on CDK9/CyclinT1, 261 nM. For the same compound, the remaining activity at 1 µM at CDK4/CyclinD1 was 92%; at CDK6/CyclinD3 it was 53%; at CDK2/CyclinA2, 27%; at CDK1/CyclinB, 60%. In addition, the 50% growth inhibitory concentration (GI50) in the assay with MV-4-11 amounted to 37 nM.
For `c1ccc(-c2ccc3ncc(-c4ccnc(Nc5ccc(N6CCCC6)nc5)n4)n3c2)cc1` [Compound 27, 4-(6-Phenylimidazo[1,2-a]pyridin-3-yl)-N-(6-(pyrrolidin-1-yl)pyridin-3-yl)pyrimidin-2-amine], the inhibition constant Ki on FLT3-ITD is 109 nM; at CDK7/CyclinH/Mat1, above 5000 nM; at CDK9/CyclinT1, above 5000 nM. Moreover, the remaining activity at 1 µM was 97% on CDK4/CyclinD1, 61% on CDK6/CyclinD3, 37% on CDK2/CyclinA2 and 84% at CDK1/CyclinB. Moreover, in the assay with MV-4-11, the 50% growth inhibitory concentration (GI50) was 196 nM.
On to `CN1CCN(c2ccc(Nc3ncc(F)c(-c4cnc5ccc(-c6ccccc6)cn45)n3)cn2)CC1` [Compound 28, 5-Fluoro-N-(6-(4-methylpiperazin-1-yl)pyridin-3-yl)-4-(6-phenylimidazo[1,2-a]pyridin-3-yl)pyrimidin-2-amine], for which the Ki at FLT3-ITD was determined as 65 nM; at CDK7/CyclinH/Mat1 it was 314 nM; on CDK9/CyclinT1 it was 86 nM; on CDK2/CyclinA2, 1120 nM. In addition, the remaining activity at 1 µM at CDK4/CyclinD1 was found to be 76%; at CDK6/CyclinD3, 45%; on CDK1/CyclinB, 61%. For the same compound, in the assay on MV-4-11, the GI50 was found to be 233 nM.
As for `COC(=O)N1CCC(c2ccc(Nc3ncc(F)c(-c4cnc5ccc(-c6ccccc6)cn45)n3)cn2)CC1` [Compound 29, Methyl 4-(5-((5-fluoro-4-(6-phenylimidazo[1,2-a]pyridin-3-yl)pyrimidin-2-yl)amino)pyridin-2-yl)piperidine-1-carboxylate], the Ki was 257 nM at FLT3-ITD, above 5000 nM at CDK7/CyclinH/Mat1 and above 5000 nM on CDK9/CyclinT1. For the same compound, the remaining activity at 1 µM at CDK4/CyclinD1 was found to be 98%; at CDK6/CyclinD3, 61%; at CDK2/CyclinA2 it was 25%; on CDK1/CyclinB it was 69%. For the same compound, the GI50 in the assay on MV-4-11 is 337 nM.
`Fc1cnc(Nc2ccc(N3CCN(CCN4CCOCC4)CC3)nc2)nc1-c1cnc2ccc(-c3ccccc3)cn12` [Compound 30, 5-Fluoro-N-(6-(4-(2-morpholinoethyl)piperazin-1-yl)pyridin-3-yl)-4-(6-phenylimidazo[1,2-a]pyridin-3-yl)pyrimidin-2-amine]: the Ki was 148 nM on FLT3-ITD, 223 nM at CDK7/CyclinH/Mat1, 75 nM at CDK9/CyclinT1 and 520 nM at CDK2/CyclinA2. Also, the remaining activity at 1 µM was 65% on CDK4/CyclinD1, 23% on CDK6/CyclinD3 and 52% at CDK1/CyclinB. In the assay with MV-4-11, the concentration for 50% growth inhibition (GI50) came to 56 nM.
With `CCOc1ccc(Nc2ncc(F)c(-c3cnc4ccc(-c5ccccc5)cn34)n2)cn1` [Compound 31, N-(6-Ethoxypyridin-3-yl)-5-fluoro-4-(6-phenylimidazo[1,2-a]pyridin-3-yl)pyrimidin-2-amine], the “Residual enzymatic activity (%) at 1 μM, FLT3-ITD” value on FLT3-ITD (compound at 1 μM) turned out to be 70%. Moreover, the remaining activity at 1 µM at CDK4/CyclinD1 was found to be 95%; on CDK7/CyclinH/Mat1, 100%; on CDK6/CyclinD3, 41%; at CDK2/CyclinA2, 55%; on CDK1/CyclinB, 97%. The Ki on CDK9/CyclinT1 was above 1000 nM. Besides, the GI50 in the assay with MV-4-11 was 600 nM.
Take `O=C(c1ccc(Nc2ncc(F)c(-c3cnc4ccc(-c5ccccc5)cn34)n2)cn1)N1CCCCC1` [Compound 32, (5-((5-Fluoro-4-(6-phenylimidazo[1,2-a]pyridin-3-yl)pyrimidin-2-yl)amino)pyridin-2-yl) (piperidin-1-yl)methanone]: the Ki at FLT3-ITD and at CDK9/CyclinT1 was above 1000 nM in each case. Further, the remaining activity at 1 µM at CDK4/CyclinD1 was determined as 91%; on CDK7/CyclinH/Mat1 it was 100%; on CDK6/CyclinD3 it was 44%; on CDK2/CyclinA2, 89%; at CDK1/CyclinB, 96%. For the same compound, the GI50 with MV-4-11 is 620 nM.
For `O=C(NC1CC1)c1ccc(Nc2ncc(F)c(-c3cnc4ccc(-c5ccccc5)cn34)n2)cn1` [Compound 33, N-Cyclopropyl-5-((5-fluoro-4-(6-phenylimidazo[1,2-a]pyridin-3-yl)pyrimidin-2-yl)amino) picolinamide], the Ki was above 1000 nM at FLT3-ITD and above 500 nM on CDK9/CyclinT1. For the same compound, the remaining activity at 1 µM came to 96% at CDK4/CyclinD1; 100% on CDK7/CyclinH/Mat1; 46% on CDK6/CyclinD3; 83% at CDK2/CyclinA2; 59% on CDK1/CyclinB. The GI50 in the assay on MV-4-11 worked out at 296 nM.

The values are drawn from patent publication US20240158391A1, “DERIVATIVES OF 4-(IMIDAZO[1,2-A]PYRIDIN-3-YL)-N-(PYRIDIN-3-YL) PYRIMIDIN-2- AMINE FOR TREATING PROLIFERATIVE DISEASES AND CONDITIONS” (AUCENTRA THERAPEUTICS PTY LTD, priority 2019, published 2024).
